Measurements published in ChEMBL document CHEMBL1926534, “Efficient synthesis of a novel m-phenylene derivative as a selective EP4 agonist inducing follicular growth and maturation in the ovary” (Bioorg Med Chem Lett, 2011).

Key:
[1] = Agonist activity at Prostaglandin E2 receptor EP1/EP2 in guinea pig ileum; format: functional, tissue-based; details: Cavia porcellus
[2] = Agonist activity at EP3 receptor in guinea pig uterus assessed as concentration required to reach uterine motility index number 2000; format: functional, Cavia porcellus
[3] = target: Prostaglandin E2 receptor EP4 subtype (Oryctolagus cuniculus, UniProt Q28691); test: Agonist activity at rabbit EP4 receptor assessed as relaxation of Kcl-induced tissue contraction by isometric transducer method; format: functional
Sequence of Prostaglandin E2 receptor EP4 subtype (Q28691 whole entry): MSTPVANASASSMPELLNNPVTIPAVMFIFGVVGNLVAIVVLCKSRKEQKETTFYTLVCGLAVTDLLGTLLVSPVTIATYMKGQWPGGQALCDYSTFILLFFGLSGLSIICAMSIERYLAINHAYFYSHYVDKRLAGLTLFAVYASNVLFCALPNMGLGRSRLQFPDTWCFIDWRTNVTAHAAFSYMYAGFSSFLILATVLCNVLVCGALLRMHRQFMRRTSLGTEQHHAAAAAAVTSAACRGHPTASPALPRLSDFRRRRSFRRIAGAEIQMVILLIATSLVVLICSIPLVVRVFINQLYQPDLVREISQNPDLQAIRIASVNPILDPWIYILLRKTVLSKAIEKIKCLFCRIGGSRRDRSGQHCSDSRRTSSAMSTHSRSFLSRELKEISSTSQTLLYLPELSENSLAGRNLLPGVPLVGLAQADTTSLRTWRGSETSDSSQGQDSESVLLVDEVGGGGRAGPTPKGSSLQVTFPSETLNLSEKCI

Row | Structure (SMILES) | EC50 [1] | EC [2] | EC50 [3]
1 | O[C@H](/C=C/[C@@H]1[C@H]2c3cccc(CCc4nnn[nH]4)c3O[C@H]2C[C@H]1O)CC1CCCCC1 | 3400 nM | 2800 nM | 2.6 nM
2 | O=C(O)CCc1cccc2c1O[C@H]1C[C@@H](O)[C@H](/C=C/[C@@H](O)CC3CCCCC3)[C@@H]21 | 150 nM | 540 nM | 5.7 nM
